Reference: patent publication US7932246B2, “Histone deacetylase inhibitors” (Chroma Therapeutics Ltd., priority 2005, dated 2011)
pIC50: −log10 of the molar value. Counter-ions that a name gives are not always drawn.

What was measured:
[1] = target: histone deacetylase activity (HeLa nuclear extract); test: HDAC fluorescent activity assay (Biomol, Fluor de Lys substrate); format: biochemical; conditions: IC50 range
Description: The ability of compounds to inhibit histone deacetylase activities was measured using the commercially available HDAC fluorescent activity assay from Biomol. In brief, the Fluor de Lys™ substrate, a lysine with an epsilon-amino acetylation, is incubated with the source of histone deacetylase activity (HeLa nuclear extract) in the presence or absence of inhibitor. Deacetylation of the substrate sensitises the substrate to Fluor de Lys™ developer, which generates a fluorophore.
Data are expressed as a percentage of the control, measured in the absence of inhibitor, with background signal being subtracted from all samples, as follows:— % activity=[(S^i−B)/(S^o−B)]×100 where S^i is the signal in the presence of substrate, enzyme and inhibitor, S^o is the signal in the presence of substrate, enzyme and the vehicle in which the inhibitor is dissolved, and B is the background signal measured in the absence of enzyme.
Histone deacetylase activity from crude nuclear extract derived from HeLa cells was used for screening. The preparation, purchased from 4C (Seneffe, Belgium), was prepared from HeLa cells harvested whilst in exponential growth phase. The nuclear extract is prepared according to Dignam JD1983 Nucl. Acid. […] The final buffer composition was 20 mM Hepes, 100 mM KCl, 0.2 mM EDTA, 0.5 mM DTT, 0.2 mM PMSF and 20% (v/v) glycerol.

HUT = HUT cell inhibition assay (WST-1 cell viability); format: cell-based; conditions: HUT cells, 72-96 h, WST-1 assay, IC50 range
Description: (§1) Cancer cell lines (U937 and HUT) growing in log phase were harvested and seeded at 1000-2000 cells/well (100 μl final volume) into 96-well tissue culture plates. Following 24 h of growth cells were treated with compound. Plates were then re-incubated for a further 72-96 h before a WST-1 cell viability assay was conducted according to the suppliers (Roche Applied Science) instructions.
(§2) Data were expressed as a percentage inhibition of the control, measured in the absence of inhibitor, as follows:— % inhibition=100−[(S^i/S^o)×100] where S^i is the signal in the presence of inhibitor and S^o is the signal in the presence of DMSO.
(§3) Dose response curves were generated from 8 concentrations (top final concentration 10 μM, with 3-fold dilutions), using 6 replicates.
(§4) IC50 values were determined by non-linear regression analysis, after fitting the results to the equation for sigmoidal dose response with variable slope (% activity against log concentration of compound), using Graphpad Prism software.
(§5) IC50 results were allocated to one of 3 ranges as follows: […]

HeLa cells = test: HeLa cell inhibition assay (SRB cell viability); format: cell-based; conditions: Homo sapiens, HeLa, 72 h, IC50 range
Description: HeLa cells growing in log phase were harvested and seeded at 1000 cells/well (200 μl final volume) into 96-well tissue culture plates. Following 24 h of cell growth cells were treated with compounds (final concentration of 20 μM). Plates were then re-incubated for a further 72 h before a sulphorhodamine B (SRB) cell viability assay was conducted according to Skehan 1990 J Natl Canc Inst 82, 1107-1112.
as §2
IC50 values were determined by non-linear regression analysis, after fitting the results of eight data points to the equation for sigmoidal dose response with variable slope (% activity against log concentration of compound), using Graphpad Prism software.
as §5

U937 = U937 cell inhibition assay (WST-1 cell viability); format: cell-based; conditions: Homo sapiens, U-937; U937 cells, 72-96 h, WST-1 assay, IC50 range
Description: as §1, §2, §3, §4, §5

Row | Compound | pIC50 [1] | pIC50 (HUT) | pIC50 (HeLa cells) | pIC50 (U937)
1 | O=C(NO)c1cnc(N2CC3C(C2)C3NS(=O)(=O)c2ccc3ccccc3c2)nc1 (stereo not drawn) [Example 1, N-Hydroxy 2-{6-[(2-naphthylsulfonyl)amino]-3-azabicyclo[3.1.0]hex-3-yl}pyrimidine-5-carboxamide trifluoroacetate] | > 7.00 | > 6.48 | > 6.48 | > 6.48
2 | O=C(NO)c1cnc(N2CC3C(C2)C3NS(=O)(=O)c2cccs2)nc1 (stereo not drawn) [Example 2, N-Hydroxy 2-{6-[(thien-2-ylsulfonyl)amino]-3-azabicyclo[3.1.0]hex-3-yl}pyrimidine-5-carboxamide] | – | < 5.48 | < 5.48 | < 5.48
3 | O=C(NO)c1cnc(N2CC3C(C2)C3NS(=O)(=O)c2cc(C(F)(F)F)cc(C(F)(F)F)c2)nc1 (stereo not drawn) [Example 3, N-Hydroxy 2-(6-{[(3,5-bistrifluoromethylphenyl)sulfonyl]amino}-3-azabicyclo[3.1.0]hex-3-1/1)pyrimidine-5-carboxamide] | > 7.00 | > 6.48 | 5.48 to 6.48 | > 6.48
4 | O=C(NO)c1cnc(N2CC3C(C2)C3NS(=O)(=O)c2ccc(OC(F)(F)F)cc2)nc1 (stereo not drawn) [Example 4, N-Hydroxy 2-(6-{[(4-trifluoromethoxyphenyl)sulfonyl]amino}-3-azabicyclo[3.1.0]hex-3-yl)pyrimidine-5-carboxamide] | > 7.00 | > 6.48 | 5.48 to 6.48 | > 6.48
5 | O=C(NO)c1cnc(N2CC3C(C2)C3NC(=O)c2ccc3ccccc3c2)nc1 (stereo not drawn) [Example 5, N-Hydroxy 2-{6-[(naphthalene-2-carbonyl)amino]-3-aza-bicyclo[3.1.0]hex-3-yl}pyrimidine-5-carboxamide] | > 7.00 | > 6.48 | 5.48 to 6.48 | 5.48 to 6.48
6 | O=C(Cc1ccc(N2CCCS2(=O)=O)cc1)NC1C2CN(c3ncc(C(=O)NO)cn3)CC21 (stereo not drawn) [Example 6, N-Hydroxy 2-(6-{2-[4-(1,1-dioxoisothiazolidin-2-yl)phenyl]acetylamino}-3-azabicyclo[3.1.0]hex-3-yl)pyrimidine-5-carboxamide] | > 7.00 | < 5.48 | < 5.48 | < 5.48
7 | O=C(CCCCc1ccccc1)NC1C2CN(c3ncc(C(=O)NO)cn3)CC21 (stereo not drawn) [Example 7, N-Hydroxy 2-[6-(5-phenylpentanoylamino)-3-azabicyclo[3.1.0]hex-3-yl]pyrimidine-5-carboxamide] | > 7.00 | 5.48 to 6.48 | 5.48 to 6.48 | 5.48 to 6.48
8 | O=C(CCCCCc1ccccc1)NC1C2CN(c3ncc(C(=O)NO)cn3)CC21 (stereo not drawn) [Example 8, N-Hydroxy 2-[6-(6-phenylhexanoyl)amino-3-azabicyclo[3.1.0]hex-3-yl]-pyrimidine-5-carboxamide] | – | > 6.48 | 5.48 to 6.48 | 5.48 to 6.48
9 | O=C(NO)c1cnc(N2CC3C(C2)C3NC(=O)C2(c3ccccc3)CC2)nc1 (stereo not drawn) [Example 9, N-Hydroxy 2-(6-{[(1-phenylcyclopropyl)carbonyl]amino}-3-azabicyclo[3.1.0]hex-3-yl)pyrimidine-5-carboxamide] | > 7.00 | 5.48 to 6.48 | 5.48 to 6.48 | 5.48 to 6.48
10 | CC(C(=O)NC1C2CN(c3ncc(C(=O)NO)cn3)CC21)c1ccccc1 (stereo not drawn) [Example 10, N-Hydroxy 2-{6-[(2-phenylpropanoyl)amino]-3-azabicyclo[3.1.0]hex-3-yl}pyrimidine-5-carboxamide] | > 7.00 | 5.48 to 6.48 | 5.48 to 6.48 | 5.48 to 6.48
11 | O=C(Cc1ccsc1)NC1C2CN(c3ncc(C(=O)NO)cn3)CC21 (stereo not drawn) [Example 11, N-Hydroxy 2-{6-[(thien-3-ylacetyl)amino]-3-azabicyclo[3.1.0]hex-3-yl}pyrimidine-5-carboxamide] | > 7.00 | 5.48 to 6.48 | 5.48 to 6.48 | < 5.48
12 | O=C(NO)c1cnc(N2CC3C(C2)C3NC(=O)C2CCCCC2)nc1 (stereo not drawn) [Example 12, N-Hydroxy 2-{6-[(cyclohexylcarbonyl)amino]-3-azabicyclo[3.1.0]hex-3-yl}pyrimidine-5-carboxamide] | > 7.00 | 5.48 to 6.48 | 5.48 to 6.48 | 5.48 to 6.48
13 | O=C(NO)c1cnc(N2CC3C(C2)C3NC(=O)c2ccccc2)nc1 (stereo not drawn) [Example 13, N-Hydroxy 2-[6-(benzoylamino)-3-azabicyclo[3.1.0]hex-3-yl]pyrimidine-5-carboxamide] | – | 5.48 to 6.48 | 5.48 to 6.48 | 5.48 to 6.48
14 | Cn1cc(CC(=O)NC2C3CN(c4ncc(C(=O)NO)cn4)CC32)c2ccccc21 (stereo not drawn) [Example 14, N-Hydroxy 2-{6-[2-(1-methyl-1H-indol-3-yl)acetylamino]-3-aza-bicyclo[3.1.0]hex-3-yl}pyrimidine-5-carboxamide] | > 7.00 | 5.48 to 6.48 | 5.48 to 6.48 | 5.48 to 6.48
15 | O=C(CCCOc1ccccc1)NC1C2CN(c3ncc(C(=O)NO)cn3)CC21 (stereo not drawn) [Example 15, N-Hydroxy 2-[6-(4-phenoxybutyrylamino)-3-azabicyclo[3.1.0]hex-3-yl]pyrimidine-5-carboxamide] | > 7.00 | 5.48 to 6.48 | 5.48 to 6.48 | 5.48 to 6.48
16 | O=C(NO)c1cnc(N2CC3C(C2)C3NC(=O)c2ccc3sccc3c2)nc1 (stereo not drawn) [Example 17, N-Hydroxy 2-{6-[(1-benzothien-5-ylcarbonyl)amino]-3-azabicyclo[3.1.0]hex-3-yl}pyrimidine-5-carboxamide] | – | > 6.48 | 5.48 to 6.48 | 5.48 to 6.48
17 | COc1ccc(CNC2C3CN(c4ncc(C(=O)NO)cn4)CC32)cc1 (stereo not drawn) [Example 21, N-Hydroxy 2-{6-[(4-methoxybenzyl)amino]-3-azabicyclo[3.1.0]hex-3-yl}pyrimidine-5-carboxamide] | – | > 6.48 | 5.48 to 6.48 | > 6.48
18 | O=C(NO)c1cnc(N2CC3C(C2)C3NCC2CCCCC2)nc1 (stereo not drawn) [Example 25, N-Hydroxy 2-{6-[(cyclohexylmethyl)amino]-3-azabicyclo[3.1.0]hex-3-yl}pyrimidine-5-carboxamide] | – | > 6.48 | > 6.48 | > 6.48
19 | O=C(NO)c1cnc(N2CC3C(C2)C3NCc2ccc(Br)cc2)nc1 (stereo not drawn) [Example 36, N-Hydroxy 2-{6-[(4-bromobenzyl)amino]-3-azabicyclo[3.1.0]hex-3-yl}pyrimidine-5-carboxamide] | > 7.00 | > 6.48 | – | > 6.48
20 | CN(C)CCCN(C1C2CN(c3ncc(C(=O)NO)cn3)CC21)S(=O)(=O)c1ccc2ccccc2c1 (stereo not drawn) [Example 50, N-Hydroxy 2-{6-[(3-dimethylaminopropyl)(naphthalene-2-sulfonyl)amino]-3-azabicyclo[3.1.0]hex-3-yl}pyrimidine-5-carboxamide] | > 7.00 | > 6.48 | – | > 6.48
21 | CN(C)CCN(C1C2CN(c3ncc(C(=O)NO)cn3)CC21)S(=O)(=O)c1ccc2ccccc2c1 (stereo not drawn) [Example 52, N-Hydroxy 2-{6-[(2-dimethylaminoethyl)(naphthalene-2-sulfonyl)-amino]-3-azabicyclo[3.1.0]hex-3-yl}pyrimidine-5-carboxamide] | – | > 6.48 | 5.48 to 6.48 | 5.48 to 6.48
